For this assay, the target named is T1, human B1R (Homo sapiens, UniProt P46663).
T1 construct: expressed in transfected cells; host or cells: CHO K1 cells (Chinese Hamster Ovary), stably transfected
T1 sequence (P46663 1-353): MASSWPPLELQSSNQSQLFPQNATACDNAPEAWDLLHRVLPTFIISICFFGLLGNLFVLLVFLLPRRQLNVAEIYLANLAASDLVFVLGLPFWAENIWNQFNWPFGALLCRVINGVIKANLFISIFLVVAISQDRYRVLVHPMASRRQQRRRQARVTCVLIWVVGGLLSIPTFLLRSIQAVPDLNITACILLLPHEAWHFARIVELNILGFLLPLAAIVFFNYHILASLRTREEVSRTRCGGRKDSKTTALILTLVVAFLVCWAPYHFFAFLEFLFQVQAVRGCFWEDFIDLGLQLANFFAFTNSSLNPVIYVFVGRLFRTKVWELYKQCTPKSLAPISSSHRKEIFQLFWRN
Description: Functional assay at bradykinin receptor 1 (B1R): Ca2+ fluorescence (Fluo-4) in FLIPR/Novostar, antagonist mode. The class given is cell-based. The note with it: test substance 10 µM, CHO K1 cells stably transfected with human B1R gene (hB1R-Zellen), agonist Lys-Des-Arg9-Bradykinin at EC80, % inhibition relative to maximal achievable inhibition; for inhibition at 10 µM: read-out: % Inhibierung (human B1R) bei 10 µM. Put shortly:
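CHO K1 cells stably expressing human B1R were loaded with Fluo-4 and preincubated 6–20 min with test compound before Lys-Des-Arg9-bradykinin at its EC80. Peak fluorescence (ex 488/em 540 nm) gave % inhibition versus maximal inhibition; IC50 from several concentrations, n=2 or 3.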

This is an account of results in EP2857388A1, “Azoles containing sulfone” (Grünenthal GmbH, priority 2013, dated 2015).

Turning to `COc1cc(C)c(S(=O)(=O)Cc2noc(CC(=O)N(C)C3CCN(c4ncnc5ccccc45)CC3)n2)c(C)c1` [SC-63, 2-[3-[[(4-Methoxy-2,6-dimethyl-phenyl)sulfonyl]-methyl]-[1,2,4]oxadiazol-5-yl]-N-methyl-N-(1-chinazolin-4-yl-piperidin-4-yl)-acetamid], the inhibition at 10 µM stood at 100%.

For the compound `COc1cc(C)c(S(=O)(=O)Cc2noc(CC(=O)N(C)C3CCC(N4CCC(OC)CC4)CC3)n2)c(C)c1` (stereo not drawn) [SC-64, 2-[3-[[(4-Methoxy-2,6-dimethyl-phenyl)sulfonyl]-methyl]-[1,2,4]oxadiazol-5-yl]-N-[4-(4-methoxy-piperidin-1-yl)-cyclohexyl]-N-methyl-acetamid], the inhibition at 10 µM was found to be 100%. The same measure, in the same setting: under `COc1cc(C)c(S(=O)(=O)Cc2noc(CC(=O)N(C)C3CCN(Cc4ccc(N5CCCC5)nc4)CC3)n2)c(C)c1` [SC-65, 2-[3-[[(4-Methoxy-2,6-dimethyl-phenyl)sulfonyl]-methyl]-[1,2,4]oxadiazol-5-yl]-N-methyl-N-[1-[(6-pyrrolidin-1-yl-pyridin-3-yl)-methyl]-piperidin-4-yl]-acetamid] stands 100%; under `COc1cc(C)c(S(=O)(=O)Cc2noc(CC(=O)N(C)C3CCN(c4ccnc(N(C)C)n4)CC3)n2)c(C)c1` [SC-66, N-[1-(2-Dimethylamino-pyrimidin-4-yl)-piperidin-4-yl]-2-[3-[[(4-methoxy-2,6-dimethyl-phenyl)-sulfonyl]-methyl]-[1,2,4]oxadiazol-5-yl]-N-methyl-acetamid], 100%; under `COc1cc(C)c(S(=O)(=O)Cc2noc(CC(=O)N(C)C3CCN(c4ccnc(N(C)C)c4)CC3)n2)c(C)c1` [SC-67, N-[1-(2-Dimethylamino-pyridin-4-yl)-piperidin-4-yl]-2-[3-[[(4-methoxy-2,6-dimethyl-phenyl)-sulfonyl]-methyl]-[1,2,4]oxadiazol-5-yl]-N-methyl-acetamid], 100%. On the same count and under the same terms, next, `COc1cc(C)c(S(=O)(=O)Cc2noc(C(=O)N(C)C3CCN(c4ccnc(N(C)C)n4)CC3)n2)c(C)c1` [SC-68, N-[1-(2-Dimethylamino-pyrimidin-4-yl)-piperidin-4-yl]-3-[[(4-methoxy-2,6-dimethyl-phenyl)sulfonyl]-methyl]-N-methyl-[1,2,4]oxadiazol-5-carbonsäure amid]: 100%; `COc1cc(C)c(S(=O)(=O)Cc2noc(C(=O)N(C)C3CCN(c4ccnc(N(C)C)c4)CC3)n2)c(C)c1` [SC-69, N-[1-(2-Dimethylamino-pyridin-4-yl)-piperidin-4-yl]-3-[[(4-methoxy-2,6-dimethyl-phenyl)sulfonyl]-methyl]-N-methyl-[1,2,4]oxadiazol-5-carbonsäure amid]: 100%. On the same count and under the same terms, under `COc1cc(C)c(S(=O)(=O)Cc2noc(CC(=O)N(C)C3CCN(c4ccncc4F)CC3)n2)c(C)c1` [SC-70, N-[1-(3-Fluor-pyridin-4-yl)-piperidin-4-yl]-2-[3-[[(4-methoxy-2,6-dimethyl-phenyl)sulfonyl]-methyl]-[1,2,4]oxadiazol-5-yl]-N-methyl-acetamid] stands 100%; under `COc1cc(C)c(S(=O)(=O)Cc2noc(CC(=O)N(C)C3CCN(Cc4cc(C)no4)CC3)n2)c(C)c1` [SC-72, 2-[3-[[(4-Methoxy-2,6-dimethyl-phenyl)sulfonyl]-methyl]-[1,2,4]oxadiazol-5-yl]-N-methyl-N-[1-[(3-methyl-isoxazol-5-yl)-methyl]-piperidin-4-yl]-acetamid], 100%; under `COc1cc(C)c(S(=O)(=O)Cc2noc(C(=O)N(C)C3CCN(c4ccncc4F)CC3)n2)c(C)c1` [SC-82, N-[1-(3-Fluor-pyridin-4-yl)-piperidin-4-yl]-3-[[(4-methoxy-2,6-dimethyl-phenyl)sulfonyl]-methyl]-N-methyl-[1,2,4]oxadiazol-5-carbonsäure amid], 98%. `COc1cc(C)c(S(=O)(=O)Cc2c(C)nn(CC(=O)N(C)[C@H]3CCC[C@@H](N4CCN(C)CC4)C3)c2C)c(C)c1` [SC-83, 2-[4-[[(4-Methoxy-2,6-dimethyl-phenyl)sulfonyl]-methyl]-3,5-dimethyl-1H-pyrazol-1-yl]-N-methyl-N-[(1S,3R)-3-(4-methyl-piperazin-1-yl)-cyclohexyl]-acetamid]: the inhibition at 10 µM was determined as 100%.

For the compound `COc1cc(C)c(S(=O)(=O)Cc2cn(CC(=O)N(C)[C@H]3CCC[C@@H](N4CCN(C)CC4)C3)nn2)c(C)c1` [SC-84, 2-[4-[[(4-Methoxy-2,6-dimethyl-phenyl)sulfonyl]-methyl]-1H-[1,2,3]triazol-1-yl]-N-methyl-N-[(1S,3R)-3-(4-methyl-piperazin-1-yl)-cyclohexyl]-acetamid], the inhibition at 10 µM came out at 100%.

For `COc1cc(C)c(S(=O)(=O)Cc2noc(CC(=O)N(C)C3CCN(c4ccncc4)C(=O)C3)n2)c(C)c1` (stereo not drawn) [SC-85, 2-[3-[[(4-Methoxy-2,6-dimethyl-phenyl)sulfonyl]-methyl]-[1,2,4]oxadiazol-5-yl]-N-methyl-N-(2-oxo-1-pyridin-4-yl-piperidin-4-yl)-acetamid], the inhibition at 10 µM is 100%. Same read-out and setting: next, `COc1cc(C)c(S(=O)(=O)Cc2nnc(C(=O)N3CCC(CN4CCN(C)CC4)C3)o2)c(C)c1` (stereo not drawn) [SC-86, [5-[[(4-Methoxy-2,6-dimethyl-phenyl)sulfonyl]-methyl]-[1,3,4]oxadiazol-2-yl]-[3-[(4-methyl-piperazin-1-yl)-methyl]-pyrrolidin-1-yl]-methanon]: 100%. Same read-out and setting: under `COc1cc(C)c(S(=O)(=O)Cc2nnc(C(=O)NC3CCNCC3(C)C)o2)c(C)c1` (stereo not drawn) [SC-87, N-(3,3-Dimethyl-piperidin-4-yl)-5-[[(4-methoxy-2,6-dimethyl-phenyl)sulfonyl]-methyl]-[1,3,4]oxadiazol-2-carbonsäure amid] stands 98%; under `COc1cc(C)c(S(=O)(=O)Cc2nc(C(=O)N3CCC(CN4CCN(C)CC4)C3)no2)c(C)c1` (stereo not drawn) [SC-88, [5-[[(4-Methoxy-2,6-dimethyl-phenyl)sulfonyl]-methyl]-[1,2,4]oxadiazol-3-yl]-[3-[(4-methyl-piperazin-1-yl)-methyl]-pyrrolidin-1-yl]-methanon], 100%. Still for that read-out and setting: under `COc1cc(C)c(S(=O)(=O)Cc2nc(C(=O)N(C)[C@H]3CCC[C@@H](N4CCN(C)CC4)C3)no2)c(C)c1` [SC-89, 5-[[(4-Methoxy-2,6-dimethyl-phenyl)sulfonyl]-methyl]-N-methyl-N-[(1S,3R)-3-(4-methyl-piperazin-1-yl)-cyclohexyl]-[1,2,4]oxadiazol-3-carbonsäure amid] stands 100%; under `COc1cc(C)c(S(=O)(=O)Cc2c(C)nn(CC(=O)N3CCC(CN4CCN(C)CC4)C3)c2C)c(C)c1` (stereo not drawn) [SC-92, 2-[4-[[(4-Methoxy-2,6-dimethyl-phenyl)sulfonyl]-methyl]-3,5-dimethyl-1H-pyrazol-1-yl]-1-[3-[(4-methyl-piperazin-1-yl)-methyl]-pyrrolidin-1-yl]-ethanon], 90%; under `COc1cc(C)c(S(=O)(=O)Cc2cn(CC(=O)N3CCC(CN4CCN(C)CC4)C3)nn2)c(C)c1` (stereo not drawn) [SC-93, 2-[4-[[(4-Methoxy-2,6-dimethyl-phenyl)sulfonyl]-methyl]-1H-[1,2,3]triazol-1-yl]-1-[3-[(4-methyl-piperazin-1-yl)-methyl]-pyrrolidin-1-yl]-ethanon], 100%.

Regarding “N-[1-(4-Fluor-cyclohexyl)-3,3-dimethyl-piperidin-4-yl]-2-[3-[[(4-methoxy-2,6-dimethyl-phenyl)sulfonyl]-methyl]-[1,2,4]oxadiazol-5-yl]-acetamid [SC-48]”, the “% Inhibierung (human B1R) bei 10 µM” value is recorded as 100%.

With “N-[4-(Cyclopropylamino)-2,2-dimethyl-cyclohexyl]-2-[3-[[(2,3-dichlor-phenyl)sulfonyl]-methyl]-[1,2,4]oxadiazol-5-yl]-acetamid [CC-123]”, the “% Inhibierung (human B1R) bei 10 µM” value is recorded as 99%.
